Laboratory results reported in US9475773B2, “NK3 receptor antagonist compound (NK3RA) for use in a method for the treatment of polycystic ovary syndrome (PCOS)” (ASTRAZENECA AB, priority 2013, dated 2016).

How the values were obtained:
[1] = tested on: LH, free and total testosterone; test: Phase 2a randomised double blind placebo controlled study in women with PCOS (interim data); format: in vivo, human
Procedure: The pharmacodynamics, safety and pharmacokinetics of a compound of the present invention, NK3RA, is being further evaluated in a randomized, double-blind, placebo-controlled of NK3RA when given in multiple doses to females with PCOS.
In this type of clinical trial three doses of 20 mg once daily, 20 mg twice daily and 40 mg twice daily of test compound are being compared to placebo, and studied in parallel group design. […] Exploratory analyses will focus on changes from baseline of LH, DHEA, FSH, oestrogen, progesterone, prolactin, thyroid stimulating hormone, Insulin-like Growth Factor 1 [IGF-1] (as surrogate for GH) and HbA1c on days 7 and 28, as well as the impact of treatment on patient reported outcomes and HRQoL as measured by change from baseline at day 28.
The study population includes women with PCOS aged 18-45. The study will enroll 14 PCOS subjects per dose cohort with a total of N=56 for the entire study (2 drop outs per group assumed to give 12 evaluable subjects per dose). Patients are being dosed in the study over a duration of 28 days.
The effect of NK3RA on testosterone and LH is being assessed. […] LH pulse amplitude and frequency are mathematically modelled parameters from raw LH assay data.
Hourly measurement of FSH and free and total testosterone was performed during these periods of intensive monitoring.
Interim data have been obtained from a total of 20 women with Polycystic Ovary Syndrome (PCOS) who received treatment (NK3RA or placebo) in the ongoing phase 2a study. This study is a 28 day, randomised, double blind placebo controlled study with 4 treatment arms, NK3RA 20 mg once daily, 20 mg twice daily, 40 mg twice daily and placebo in women with PCOS.
Tables 1 to 3 below summarise the number of patients with data supportive, consistent and not supportive by treatment group (placebo and NK3RA).
In Table 1 the criteria used to determine what is supportive, consistent or not supportive are based on a qualitative evaluation of the changes in:
(a) LH area under the curve (AUC) between 0 and 8 hours AUC(0-8)
(b) LH pulsatility parameters derived through deconvolution (Veldhuis J D, Keenan D M, and Pincus S M. Motivations and methods for analyzing pulsatile hormone secretion. Endocrine Reviews. 2008, 29(7):823-864; and Liu P Y, Keenan D M, Kok P, Padmanabhan V, O'Byrne K T, and Veldhuis J D. Sensitivity and specificity of pulse detection using a new deconvolution method. Am J Physiol Endocrinol Metab. 2009; 297(2):538-44) • i) average mass per LH pulse in 8 hours • ii) total number of LH pulses in 8 hours.
For LH, there is a relationship between the LH AUC(0-8) and LH pulsatility. In particular, reductions in LH AUC(0-8) that would be considered to be disease modifying in PCOS will manifest themselves in pulsatility parameters of average mass per LH pulse in 8 hours and/or total number of LH pulses in 8 hours. Mass per pulse (MPP) is defined the amount of LH released per reconstructed LH pulse. The LH AUC(0-8) can be more reliably measured compared to the pulsatility parameters and therefore why both AUC(0-8) and pulsatility are considered in interpreting the level of LH reduction.
In Table 2 the criteria used to determine what is supportive, consistent or not supportive are based on a qualitative evaluation of the changes in average (on an individual patient basis) free testosterone.
In Table 3 the criteria used to determine what is supportive, consistent or not supportive are based on a qualitative evaluation of the changes in average (on an individual patient basis) total testosterone.
Expert judgement was necessary in the application of these criteria and therefore plots were evaluated independently by 3 AZ physicians. The most common result across the 3 physicians determined provided the overall evaluation for a single patient. These criteria were agreed between the 3 reviewers ahead of the plots being available for review. […]

rats = test: Cardiovascular effects in rats; format: in vivo, rat; details: 46 mg/kg orally (100 μmol/kg), highest dose tested
female rabbits = test: Rabbit maternal toxicity and fetal observations; format: in vivo
Procedure: In female rabbits, the no effect dose level for maternal toxicity was 25 mg/kg/day. The no adverse effect dose level for fetal observations was 50 mg/kg/day.

rat = test: Rat cocaine drug discrimination assay; format: in vivo; details: oral doses up to 46 mg/kg
NK3 receptor = molecular target: T1, NK3 receptor (Homo sapiens, UniProt P29371); test: In vitro target engagement; format: binding; details: n=12
T1 sequence (P29371 1-465): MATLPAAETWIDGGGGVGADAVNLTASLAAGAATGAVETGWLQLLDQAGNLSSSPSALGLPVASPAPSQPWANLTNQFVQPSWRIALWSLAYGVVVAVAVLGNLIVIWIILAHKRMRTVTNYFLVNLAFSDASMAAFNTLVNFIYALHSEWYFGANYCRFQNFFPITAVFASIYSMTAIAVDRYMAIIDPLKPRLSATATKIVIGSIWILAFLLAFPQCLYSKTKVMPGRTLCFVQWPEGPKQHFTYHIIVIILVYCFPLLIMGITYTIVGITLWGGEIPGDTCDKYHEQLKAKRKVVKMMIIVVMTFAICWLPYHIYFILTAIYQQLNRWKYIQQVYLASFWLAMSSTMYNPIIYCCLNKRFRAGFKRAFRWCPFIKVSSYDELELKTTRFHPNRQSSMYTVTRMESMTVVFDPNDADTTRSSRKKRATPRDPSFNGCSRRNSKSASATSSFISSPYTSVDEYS

NK2 = molecular target: T2, NK2 (Homo sapiens, UniProt P21452); test: Specificity over other tachykinin receptors (NK2); format: binding
T2 sequence (P21452 1-398): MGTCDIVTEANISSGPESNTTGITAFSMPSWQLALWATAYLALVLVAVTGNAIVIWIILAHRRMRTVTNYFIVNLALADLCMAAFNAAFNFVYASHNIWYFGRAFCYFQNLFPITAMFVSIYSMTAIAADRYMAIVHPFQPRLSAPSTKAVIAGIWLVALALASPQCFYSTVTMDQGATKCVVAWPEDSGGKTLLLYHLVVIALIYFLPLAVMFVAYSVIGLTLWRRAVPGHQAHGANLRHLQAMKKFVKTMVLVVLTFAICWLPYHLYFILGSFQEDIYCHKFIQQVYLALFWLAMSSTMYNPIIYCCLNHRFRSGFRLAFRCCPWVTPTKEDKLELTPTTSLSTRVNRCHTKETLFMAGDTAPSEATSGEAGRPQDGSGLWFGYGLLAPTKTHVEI

[2] = decrease vs baseline on both days 7 and 28
[3] = decrease vs baseline on either days 7 and 28
[4] = increase vs baseline on both days 7 and 28

Structure (SMILES): CC[C@H](NC(=O)c1c(NS(C)(=O)=O)c(-c2ccccc2)nc2ccccc12)c1ccccc1 [NK3RA, 3-(methanesulfonamido)-2-phenyl-N-[(1S)-1-phenylpropyl]quinoline-4-carboxamide]
- LH: No. of patients Supportive ([1]; NK3RA arms pooled, LH AUC decreases on both days 7 and 28 AND MPP or number of pulses decrease): 2
- LH: No. of patients Consistent ([1]; NK3RA arms pooled, LH AUC decreases on both days 7 and 28 OR MPP or number of pulses decrease): 3
- LH: No. of patients Non-supportive ([1]; NK3RA arms pooled, LH AUC, MPP and number of pulses increase on day 7 or 28): 3
- Free testosterone: No. of patients Supportive [1, 2]: 2
- Total Testosterone: No. of patients Supportive [1, 2]: 3
- Free testosterone: No. of patients Consistent [1, 3]: 4
- Total Testosterone: No. of patients Consistent [1, 3]: 3
- Free testosterone: No. of patients Non-supportive [1, 4]: 3
- Total Testosterone: No. of patients Non-supportive [1, 4]: 4
- cardiovascular effects (rats): no cardiovascular effects
- no adverse effect dose level for fetal observations (female rabbits): 50 mg/kg/day
- no effect dose level for maternal toxicity (female rabbits): 25 mg/kg/day
- activity in cocaine drug discrimination (rat): no activity
- IC50 (NK3 receptor): 2.24 ± 0.57 nM
- specificity for NK3 over NK2 (NK2): > 800 fold
